From PubChem BioAssay AID1645861 (Buhrlage Lab, Dana-Farber Cancer Institute and Novartis …, 2021)
Active and inactive are the calls of the source.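 Rule for the calls: active = compounds whose peak USP7 inhibition across the dose series reached 30% or more; inactive = the rest.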

Target: Ubiquitin carboxyl-terminal hydrolase 7 (Homo sapiens) (UniProt Q93009)
Test: Ubiquitin-specific protease 7 DUB inhibitors, concentration-effect, biochemical, validation of primary hits (AID 1645861)
Conditions: purified USP7, Ub-rhodamine cleavage fluorescence, 60 min

Ubiquitin carboxyl-terminal hydrolase 7 (Homo sapiens), sequence (Q93009 whole entry, looked up): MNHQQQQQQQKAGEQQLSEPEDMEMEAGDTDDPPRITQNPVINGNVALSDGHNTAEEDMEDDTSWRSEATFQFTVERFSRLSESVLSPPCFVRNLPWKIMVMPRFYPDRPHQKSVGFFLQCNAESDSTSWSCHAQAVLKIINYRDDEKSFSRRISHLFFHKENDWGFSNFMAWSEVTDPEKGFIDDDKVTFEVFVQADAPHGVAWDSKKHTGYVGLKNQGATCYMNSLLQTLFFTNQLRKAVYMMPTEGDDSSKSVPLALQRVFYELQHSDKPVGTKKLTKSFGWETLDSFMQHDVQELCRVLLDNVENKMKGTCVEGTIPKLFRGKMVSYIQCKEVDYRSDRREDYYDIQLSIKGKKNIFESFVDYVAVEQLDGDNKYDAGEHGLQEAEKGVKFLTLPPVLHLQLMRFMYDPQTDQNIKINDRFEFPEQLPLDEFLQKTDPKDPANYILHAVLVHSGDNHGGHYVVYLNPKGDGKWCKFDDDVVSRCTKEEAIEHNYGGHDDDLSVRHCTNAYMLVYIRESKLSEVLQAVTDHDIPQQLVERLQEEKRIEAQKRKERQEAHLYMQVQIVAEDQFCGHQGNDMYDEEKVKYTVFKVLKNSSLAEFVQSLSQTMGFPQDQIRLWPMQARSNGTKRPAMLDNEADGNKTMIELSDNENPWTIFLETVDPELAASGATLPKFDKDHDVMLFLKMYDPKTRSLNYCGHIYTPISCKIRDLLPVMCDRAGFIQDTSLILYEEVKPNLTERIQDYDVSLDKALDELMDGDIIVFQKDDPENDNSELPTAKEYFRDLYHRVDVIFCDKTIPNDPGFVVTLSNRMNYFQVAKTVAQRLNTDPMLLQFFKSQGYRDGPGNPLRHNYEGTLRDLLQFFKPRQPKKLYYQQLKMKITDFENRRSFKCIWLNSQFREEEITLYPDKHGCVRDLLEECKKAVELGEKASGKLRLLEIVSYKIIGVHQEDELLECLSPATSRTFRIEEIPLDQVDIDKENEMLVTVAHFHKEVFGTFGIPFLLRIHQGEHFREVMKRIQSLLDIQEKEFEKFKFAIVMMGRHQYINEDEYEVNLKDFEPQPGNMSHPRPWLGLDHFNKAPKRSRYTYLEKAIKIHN

| SMILES | IC50 |
| --- | --- |
| Cn1c2ccccc2c(=O)c2c(=O)n(Cc3ccco3)c(-c3ccccc3F)nc21 | > 50 µM (inactive) |
| O=C1Nc2ccccc2C(=O)C1C(c1ccc(Cl)cc1)C1C(=O)Nc2ccccc2C1=O (centres undefined) | 44.8 µM |
| O=c1[nH]c(C2CCN(S(=O)(=O)c3ccc(S(=O)(=O)NC4CC4)cc3)CC2)nc2c1nnn2Cc1c(Cl)cccc1Cl | > 50 µM (inactive) |
| Cn1c(=O)c(C(=O)Nc2ccc(Br)cc2)nc2ccccc21 | > 50 µM (inactive) |
| Cc1nnc(NC(=O)C2CCN(c3ccc(S(N)(=O)=O)cc3[N+](=O)[O-])CC2)o1 | 49.4 µM |
| CCCCN1Cc2sc(NC(=O)Nc3ccccc3C)nc2C1=O | > 50 µM (inactive) |
| Cc1ccc(C(=O)c2cn(CC(=O)Nc3ccc4c(c3)OCO4)c3ccccc3c2=O)cc1 | > 50 µM (inactive) |
| O=C(COc1ccccc1-c1nnc(-c2ccccc2)o1)NCCc1ccco1 | > 50 µM (inactive) |
| O=C1c2ccccc2C(=O)c2c(O)c(O)cc(O)c21 | 45.6 µM |
| Cc1ccc(NC(=O)Nc2ccc(C)n(CC(=O)Nc3ccc(C)c(C)c3)c2=O)cc1 | 38.8 µM |
| O=C(Nc1ccc(-c2cn3ccsc3n2)cc1)c1ccc(Cl)c([N+](=O)[O-])c1 | 39.5 µM |
| COc1ccc(NC(=O)Cn2c(=O)n(-c3ccc(CC(=O)NCc4ccco4)cc3)c(=O)c3ccccc32)cc1Cl | > 50 µM (inactive) |
| COc1ccc(-c2cc(-c3ccccc3)nc(SCC(N)=O)c2C#N)cc1OC | > 50 µM (inactive) |
| CCCCCCCCCC(CCCCCCCCCC(=O)O)O[C@H]1O[C@@H](COC(C)=O)[C@H](O)[C@@H](O)[C@H]1OC(=O)CC(=O)O (some centres undefined) | > 50 µM (inactive) |
| COc1c(O)cc(CC(=O)O)c(C(C)=O)c1O | 47.4 µM |
| Cc1ccc(NC(=O)Cc2nnc3c(-c4nc(C5CC5)no4)cccn23)cc1 | 35.5 µM |
| COc1ccc(NC(=O)Cn2c(=O)n(CCCC(=O)NC3CCCC3)c(=O)c3cc(Cl)ccc32)c(OC)c1 | > 50 µM (inactive) |
| O=C(O)c1ccccc1C(=O)Nc1ccc(SC(C(=O)Nc2cccc(Cl)c2)c2ccccc2)cc1 (centres undefined) | > 50 µM (inactive) |
| Cc1cccc(C)c1NC(=O)CN1C(=O)CC(c2ccccc2)=Nc2ccccc21 | > 50 µM (inactive) |
| O=C(CC1C(=O)Nc2nc3ccccc3n21)Nc1cccc2ccccc12 (centres undefined) | > 50 µM (inactive) |
| O=C(COc1ccccc1)Nc1ccc(-c2nc3cnccc3o2)c(O)c1 | > 50 µM (inactive) |
| Cn1cc(NC(=O)Nc2cccc(C(F)(F)F)c2)c2ccccc2c1=O | > 50 µM (inactive) |

| SMILES | IC50 |
| --- | --- |
| CCN(CC)Cc1ccc(-c2nnc(-c3cnc4onc(C)c4c3)o2)o1 | > 50 µM (inactive) |
| Cn1nc(Cl)c(Cl)c1Oc1ccc(S(=O)(=O)Nc2ccc(Oc3ccc(C(F)(F)F)cn3)c(Cl)c2)cc1 | 46.4 µM |
| COc1ccccc1N1CCN(C(=O)c2ccc3c(=O)n(CCc4ccccc4)c(=O)[nH]c3c2)CC1 | > 50 µM (inactive) |
| O=C(Nc1cccc([N+](=O)[O-])c1)Nc1ccc2snnc2c1 | 17.7 µM |
| Cc1ccc(Cn2c(=O)c3ncccc3n(CC(=O)NCc3ccc(F)cc3)c2=O)cc1 | > 50 µM (inactive) |
| C[C@H](Cc1cc2c(cc1O)OCO2)[C@@H](C)Cc1cc2c(cc1O)OCO2 | > 50 µM (inactive) |
| O=C(CSc1ncnc2c1oc1ccccc12)NCCc1ccccc1 | > 50 µM (inactive) |
| COc1ccc(OCCn2c(C3CC(=O)N(c4cccc(C)c4)C3)nc3ccccc32)cc1 (centres undefined) | > 50 µM (inactive) |
| O=C1c2c(O)ccc(O)c2C2(Oc3cccc4cccc(c34)O2)C2OC12 (centres undefined) | > 50 µM (inactive) |
| Cc1cc(=O)n(CC(=O)Nc2ccccc2C)c(Nc2ccc(F)cc2)n1 | > 50 µM (inactive) |
| O=C(NCc1ccco1)c1ccc(Cn2c(=O)c3sccc3n(Cc3cc(=O)n4ccccc4n3)c2=O)cc1 | > 50 µM (inactive) |
| O=C(CCCCn1c(=O)c2ccccc2n(CC(=O)Nc2ccc3c(c2)OCCO3)c1=O)NCc1ccco1 | > 50 µM (inactive) |
| COc1cc(NC(=O)Cn2c(=O)n(-c3ccc(CC(=O)NCc4ccco4)cc3)c(=O)c3ccccc32)cc(OC)c1 | > 50 µM (inactive) |
| Cc1cc(NC(=O)Cn2c(=O)n(Cc3ccco3)c(=O)c3ccc(C(=O)NCCc4ccccc4)cc32)n[nH]1 | > 50 µM (inactive) |
| CSC1SCC2C(=O)N(C)C(C(C)C(C)C)C(=O)OCC(NC(=O)c3cnc4ccccc4n3)C(=O)NC(C)C(=O)N(C)C1C(=O)N(C)C(C(C)C(C)C)C(=O)OCC(NC(=O)c1cnc3ccccc3n1)C(=O)NC(C)C(=O)N2C (centres undefined) | > 50 µM (inactive) |
| COc1ccc(-c2nc3c(c(=O)c4ccccc4n3C)c(=O)n2Cc2ccco2)cc1 | 46.9 µM |
| CC(OC(=O)c1cc(S(=O)(=O)Nc2ccccc2F)ccc1Cl)C(=O)Nc1ccc([N+](=O)[O-])cc1C(F)(F)F (centres undefined) | > 50 µM (inactive) |
| COc1ccc(NC(=O)Cn2cc(C(=O)c3ccc(C)cc3)c(=O)c3ccccc32)cc1 | > 50 µM (inactive) |
| COC(=O)c1ccccc1NC(=O)Cn1c(=O)n(CCCC(=O)NCc2ccco2)c(=O)c2ccccc21 | > 50 µM (inactive) |
| Cc1ccccc1NC(=O)c1nc(-c2cn(Cc3ccc(F)cc3)nn2)no1 | > 50 µM (inactive) |
| CCCCCC(=O)C(CCCC)c1oc(=O)c(CCCC)c(O)c1CCCC (centres undefined) | > 50 µM (inactive) |
| COc1ccccc1-c1nc(-c2cn(-c3cccc(Cl)c3)nn2)no1 | 28.9 µM |
